Experimental data as given in patent publication US10221190B2, “Biguanide compounds and use thereof” (IMMUNOMET THERAPEUTICS INC., priority 2013, dated 2019).

Legend:
HCT116 cell = experiment: Inhibitory activity against cancer cells (MTT cell viability), HCT116; assay type: cell-based, human; details: Homo sapiens, HCT 116, 48 hr incubation
Experimental: (§1) The inhibitory activities of biguanide derivatives against cancer cells were evaluated in the cell line SK-MEL-28 derived from human Melanoma cell, Miapaka-2 cell line derived from human pancreatic cancer cell and HCT116 cell line derived from human colorectal cancer cell by measuring the concentration that inhibits 50% of the growth of the cell lines (the half maximal inhibitory concentration, IC50).
(§2) Firstly, SK-MEL-28 cells were grown to be density of 5,000 cells/well in RPMI-1640 media supplemented with 10% (v/v) bovine calf serum, on 96-well plates for 16 hr. To measure the IC50 of each compound, the cells were incubated for 48 hr with the 100 mM PBS stock compounds at an amount of 10 mM, 1 mM, 200 uM, 40 uM, 8 uM, 1.6 uM, 0.32 uM or 0.064 uM; 50 mM PBS and EtOH stock compounds at an amount of 1 mM, 200 uM, 40 uM, 8 uM, 1.6 uM, 0.32 uM and 0.064 uM; and 50 mM DMSO stock compounds at an amount of 100 uM, 25 uM, 6.25 uM, 1.56 uM, 0.39 uM, 0.10 uM and 0.02 uM, respectively. To test the viable cells after incubation with each compound, the cell cultures were incubated additionally for 2 hr in the presence of MTT. The produced formazan crystals were dissolved with dimethyl sulfoxide and then measured by detecting the absorbance at 560 nm.
(§3) After the 48 hr incubation, the viable cells were counted on the well plates treated with the compounds of the Examples relative to the count of the viable cells on the non-treated plates, and then was represented as the cell viability (%). By using the cell viability (%) result, the cell viability curve was plotted, and IC50 was calculated from the curve to evaluate the inhibitory activity against cancer cells.
(§4) The inhibitory activities of biguanide derivatives against cancer cells of Miapaca-2 cell and HCT116 cell were evaluated according to the substantially same method as described in SK-MEL-28 cell, except that DMEM media supplemented with 10% (v/v) bovine calf serum was used instead of RPMI-1640 media supplemented with 10% (v/v) bovine calf serum for SK-MEL-28 cell.

[1] = tested on: lung cancer cell line A549; experiment: Inhibitory activity on Oxygen Consumption Rate (OCR); assay type: cell-based; details: A549, 3 hrs, 10 uM compound; phenformin set to 100%, untreated control set to 0%
Experimental: The cellular metabolic activity of the compounds on Oxygen Consumption Rate (OCR) was evaluated, because the biguanide drugs have anticancer activity by inhibiting the oxidative phosphorylation of cancer cell.
A549 cells were inoculated at 5×10^3 cells in RPMI1640 media on XF96 cell culture plate and cultured for 24 h (temp; 37° C., 5% CO2) to make the cell adhere to the plate.
After 24 hr, A549 cells were treated by 10 μM of the compounds or phenformin, and were washed with XF analysis media using Prep station to remove the original media. A549 cells were retreated by compounds or phenformin and incubated for 1 hr (temp; 37° C., Non-CO2) in Prep station. While incubation in Prep station, sensor cartridge was calibrated for 1 hr. Then, the calibrated sensor cartridge was inserted to the cell plate to analyze OCR.
When OCR of phenformin as a reference drug was set to 100% and OCR of untreated control was set to 0%, the OCR of tested compounds was calculated by converting the measured OCR to be the relative percentage value (%).

Miapaca-2 cell = experiment: Inhibitory activity against cancer cells (MTT cell viability), Miapaca-2; assay type: cell-based; details: Homo sapiens, MIA PaCa-2, Miapaca-2, 48 hr incubation
Experimental: as §1, §2, §3, §4

SK-MEL-28 cells = experiment: Inhibitory activity against cancer cells (MTT cell viability), SK-MEL-28; assay type: cell-based; details: Homo sapiens, SK-MEL-28, 48 hr incubation
Experimental: as §1, §2, §3

| IC50 (HCT116 cell) | IC50 (Miapaca-2 cell) | IC50 (SK-MEL-28 cells) | Compound | OCR inhibition relative to phenformin (%) [1] |
| --- | --- | --- | --- | --- |
| 59.5 µM |  |  | Cl.N=C(NC(=N)N1CCc2ccccc2C1)N1CCCC1 [Example 89, N-(imino(pyrrolidin-1-yl)methyl)-3,4-dihydroisoquinoline-2(1H)-carboximidamide] | 44% |
| 35.2 µM |  |  | CN1CCN(C(=N)NC(=N)Nc2ccc(F)c(OC(F)(F)F)c2)CC1.Cl [Example 40, N1-4-methyl piperazine-N5-(4-fluoro-3-trifluoromethoxy)phenyl biguanide] | 42.9% |
| 39.8 µM |  |  | C[C@H]1CCCN1C(=N)NC(=N)Nc1ccc(OC(F)(F)F)cc1.Cl [Example 16] | 13% |
|  | 106 µM |  | Cl.N=C(NC(=N)N1CCC(O)CC1)Nc1cccc(Oc2ccccc2)c1 [Example 22, N1-4-hydroxy piperidine-N5-(3-phenoxy)phenyl biguanide] | 74% |
| > 100 µM | 58.6 µM | 134 µM | Cl.N=C(NC(=N)N1CCC(CO)C1)Nc1ccc(OC(F)(F)F)cc1 (stereo not drawn) [Example 20, N1-3-hydroxy methyl pyrrolidine-N5-(4-trifluoromethoxy)phenyl biguanide] | 15% |
| 28.6 µM |  |  | CC(C)c1ccc(NC(=N)NC(=N)N2CCCC2)cc1.Cl [Example 6, N1-pyrrolidine-N5-(4-isopropyl)phenyl biguanide] | 44% |
| > 100 µM | 47.9 µM | 182 µM | Cl.N=C(NC(=N)N1CCC(O)CC1)Nc1ccc(OC(F)(F)F)cc1 [Example 18, N1-4-hydroxy piperidine-N5-(4-trifluoromethoxy)phenyl biguanide] | 57% |
| > 100 µM | 36.2 µM | 107 µM | N=C(NCc1ccc2c(c1)OCO2)NC(=N)N1CCCC1 [Example 1, N1-pyrrolidine-N5-(benzo[1,3]dioxol-5-ylmethyl) biguanide] |  |
| 182 µM | > 100 µM | > 100 µM | CS(=O)(=O)C1CCN(C(=N)NC(=N)Nc2ccc(OC(F)(F)F)cc2)CC1 [Example 53, N1-4-(methylsulfonyl)piperidine-N5-(4-trifluoromethoxy)phenyl biguanide] |  |
| 12.5 µM | 119 µM | 266 µM | [H]/N=C(/N)N/C(=N/[H])NCCc1ccccc1 [Phenformin, phenformin, reference compound] |  |
